Experimental data from patent US20260232684A1, “FLT3 INHIBITORS AND METHODS OF USING THE SAME” (BIOVENTURES, LLC, priority 2023, published 2026).

Columns and labels:
[1] = tested on: Ba/F3 FLT3-ITD with Thr, Ile, or Val gatekeeper residues; experiment: Cell viability, Ba/F3 FLT3-ITD with Thr, Ile or Val gatekeeper; assay type: cell-based; settings: other gatekeeper mutants (Thr, Ile, Val) compared with F691M
Experimental: (§1) FIG. 3. Molecular docking study of compound 1 and impact of the most common gatekeeper variants in the human kinome on activity toward […]. […] The dim FLT3 active model was built using 1PKG (KIT) as a reference using Prime (Schrodinger®). The complex of active FLT3 bound to 1 was minimized by Embrace (Schrodinger®). […] Cells were treated with inhibitor at increasing log doses (0.1 nM-10 μM) for 48 hours. Cell viability was analyzed through CellTiter GLO.
(§2) To further investigate the possibility of a hydrophobic cage interaction and its contribution to the selectivity of compound 1, we assessed the impact of substitutions of the native phenylalanine at position 691 with the other residues most commonly found at this position in the human kinome (methionine, threonine, isoleucine, or valine). Ba/F3 cells transformed with FLT3-ITD or with FLT3-ITD substitutions at position 691 were assessed for sensitivity to compound 1 (FIG. 3C).
(§3) Exponentially growing cells (1×10^3-1×10^4 cells) were plated in triplicate in a 96-well plate with 0.1 mL of RPMI 1640+10% (vol/vol) FBS. Each triplicate was either dosed with drug or DMSO vehicle control. Drug dosing was completed at log doses ranging from 0.1 nM-10 μM. Cell viability was assessed after 48 hours using CellTiter GLO (Promega). Viability values were normalized to the vehicle control average. Numerical IC50 values were calculated in GraphPad Prism 7. […]

[2] = tested on: Ba/F3 FLT3-ITD F691M line; experiment: Cell viability, Ba/F3 FLT3-ITD F691M gatekeeper mutant; assay type: cell-based; settings: IC50, 48 hours, CellTiter GLO
Experimental: as §1, §2, §3

[3] = molecular target: FLT3 D835Y (Homo sapiens, UniProt P36888, D835Y); experiment: Enzyme kinetic analysis (5-FAM microfluidic assay), FLT3 D835Y; assay type: biochemical; settings: variable ATP and inhibitor concentrations
Experimental: FIG. 14. Enzyme kinetic analysis of compound 1 and 2 against FLT3 and FLT3 D835Y. The 5-FAM labeled microfluidic assay was utilized and all the activities were measured using Caliper EZ Reader II with a 12-sipper chip. In the presence of variable concentrations of compound 1 or 2, phosphorylation activities of FLT3 and FLT3 D835Y were measured at different level of ATP within certain time durations.
To further assess putative binding modes of compounds 1 and 2, enzyme kinetic analyses were performed.

| SMILES | loss of activity relative to the Ba/F3 FLT3-ITD line, in words [1] | loss of activity relative to the Ba/F3 FLT3-ITD line [2] [fold] | binding mode / inhibition model from enzyme kinetics [3] |
| --- | --- | --- | --- |
| CN(C)CCNc1ncc(F)c(-c2cnc3cc(-c4cnn(C)c4)ccn23)n1 [Compound 1] | an even greater impact | ~100 | – |
| CC(C)(C)c1cc(NC(=O)Cc2ccc(-c3cnc4cc(-c5cnn(CCN6CCOCC6)c5)ccc4n3)cc2)no1 [Compound 2, N-(5-(tert-butyl)isoxazol-3-yl)-2-(4-(6-(1-(2-morpholinoethyl)-1H-pyrazol-4-yl)quinoxalin-2-yl)phenyl) acetamide] | – | – | intermediate conformation between type 1 and type 2 |
